Data published in patent publication US20110038948A1, “Methods of Reducing the Production of Reactive Oxygen Species and Methods of Screening or Identifying Compounds and Compositions that Reduce the Production of Reactive Oxygen Species” (UNIVERSITY OF TENNESSEE RESEARCH FOUNDATION, priority 2005, published 2011).

Columns and labels:
TNFα = TNFα expression in RAW 264 macrophages; format: cell-based; conditions: RAW 264 macrophages cultured alone; compound added to calcitriol
Protocol: (§1) RAW 264 macrophages and 3T3-L1 preadipocytes (American Type Culture Collection) were incubated at a density of 8000 cells/cm2 (10 cm2 dish) and grown in Dulbecco's modified Eagle's medium (DMEM) containing 10% FBS and antibiotics (adipocyte medium) at 37° C. in 5% CO2 in air. Confluent 3T3-L1 preadipocytes were induced to differentiate with a standard differentiation medium consisting of DMEM-F10 (1:1, vol/vol) medium supplemented with 1% FBS, 1 μM dexamethasone, IBMX (0.5 mM) and antibiotics (1% Penicillin-Streptomycin). Preadipocytes were maintained in this differentiation medium for 3 days and subsequently cultured in adipocyte medium. Cultures were re-fed every 2-3 days to allow 90% cells to reach fully differentiation for 3T3-L1 adipocytes or grow to a confluence for RAW 264 before conducting chemical treatment.
(§2) Cells were washed with fresh adipocyte medium, re-fed with medium containing the indicated treatments, and incubated at 37° C. in 5% CO2 for 48 hours before analysis. Cell viability was measured via trypan blue exclusion.
Human adipocytes (Zen-Bio, Inc.), 3T3-L1 adipocytes, RAW264 macrophages were obtained and co-cultured by using transwell inserts with 0.4 μm porous membranes (Corning) to separate adipocytes and macrophages. All data are expressed as mean±SEM. Data were evaluated for statistical significance by analysis of one-way or two-way variance (ANOVA; means with different letter differ, p<0.05).
Adipocyte and muscle 18s, CD14, TNFα, MIP, M-CSF, IL-6 and MCP-1 were quantitatively measured using a Smart Cycler Real Time PCR System (Cepheid, Sunnyvale, Calif.) with a TaqMan 1000 Core Reagent Kit (Applied Biosystems, Branchburg, N.J.). […] Reactions of quantitative RT-PCR for standards and unknown samples were also performed according to the instructions of Smart Cycler System (Cepheid, Sunnyvale, Calif.) and TaqMan Real Time PCR Core Kit (Applied Biosystems, Branchburg, N.J.). The mRNA quantitation for each sample was further normalized using the corresponding 18s quantitation.

IL-6 = IL-6 expression in RAW 264 macrophages; format: cell-based; conditions: RAW 264 macrophages cultured alone; compound added to calcitriol
Protocol: as §1, with “Cultures were re-fed every 2-3 days to allow 90% cells to reach fully differentiation for 3T3-L1 adipocytes or grow to a confluence for RAW 264 before conducting chemical treatment.” left out
as §2
Human adipocytes (Zen-Bio, Inc.), 3T3-L1 adipocytes, RAW264 macrophages were obtained and co-cultured by using transwell inserts with 0.4 μm porous membranes (Corning) to separate adipocytes and macrophages. All data are expressed as mean±SEM. Data were evaluated for statistical significance by analysis of one-way or two-way variance (ANOVA; means with different letter differ, p<0.05). […]

3T3-L1 adipocytes [1] = assay: Mitochondrial membrane potential (JC-1); format: cell-based, mouse; conditions: GDP 100 μmol/L plus H2O2
Protocol: 3T3-L1 preadipocytes were incubated at a density of 8000 cells/cm^2 (10 cm^2 dish) and grown in Dulbecco's modified Eagle's medium (DMEM) containing 10% FBS and antibiotics (adipocyte medium) at 37° C. in 5% CO2 in air. Confluent preadipocytes were induced to differentiate with a standard differentiation medium consisting of DMEM-F10 (1:1, vol/vol) medium supplemented with 1% FBS, 1 μM dexamethasone, IBMX (0.5 mM) and antibiotics (1% Penicillin-Streptomycin). Preadipocytes were maintained in this differentiation medium for 3 days and subsequently cultured in adipocyte medium. Cultures were re-fed every 2-3 days to allow 90% of cells to reach full differentiation before conducting chemical treatment. Chemicals were freshly diluted in adipocyte medium before treatment. […] Cell viability was measured via trypan blue exclusion.
Mitochondrial membrane potential was analyzed fluorometrically with a lipophilic cationic dye JC-1 (5,5′,6,6′-tetrachloro-1,1′,3,3′-tetraethylbenzimidazol carbocyanine iodide) using a mitochondrial potential detection kit (Biocarta, San Diego, Calif.). Mitochondrial potential was determined as the ratio of red fluorescence (excitation 550 nm, emission 600 nm) and green fluorescence (excitation 485 nm, emission 535 nm) using a fluorescence microplate reader.

3T3-L1 adipocytes [2] = assay: Intracellular ROS generation in cultured adipocytes (H2-DCFDA); format: cell-based, mouse
Protocol: 3T3-L1 preadipocytes were incubated at a density of 8000 cells/cm^2 (10 cm^2 dish) and grown in Dulbecco's modified Eagle's medium (DMEM) containing 10% FBS and antibiotics (adipocyte medium) at 37° C. in 5% CO2 in air. Confluent preadipocytes were induced to differentiate with a standard differentiation medium consisting of DMEM-F10 (1:1, vol/vol) medium supplemented with 1% FBS, 1 μM dexamethasone, IBMX (0.5 mM) and antibiotics (1% Penicillin-Streptomycin). Preadipocytes were maintained in this differentiation medium for 3 days and subsequently cultured in adipocyte medium. Cultures were re-fed every 2-3 days to allow 90% of cells to reach full differentiation before conducting chemical treatment. Chemicals were freshly diluted in adipocyte medium before treatment. Cells were washed with fresh adipocyte medium, re-fed with medium containing the different treatments, and incubated at 37° C. in 5% CO2 in air before analysis. Cell viability was measured via trypan blue exclusion. […] Cells were loaded with H2-DCFDA (2 μmol/L) 30 minute before the end of the incubation period (48 h). After washing twice with PBS, cells were scraped and disrupted by sonication on ice (20 s). Fluorescence (emission 543 nm or 527 nm) and DNA content were then measured as described previously. The intensity of fluorescence was expressed as arbitrary units per ng DNA.

3T3-L1 adipocytes [3] = assay: Cell proliferation / DNA synthesis in cultured adipocytes (CyQUANT); format: cell-based, mouse; conditions: compound plus glucose 30 mmol/L, 48 hours
Protocol: 3T3-L1 preadipocytes were incubated at a density of 8000 cells/cm^2 (10 cm^2 dish) and grown in Dulbecco's modified Eagle's medium (DMEM) containing 10% FBS and antibiotics (adipocyte medium) at 37° C. in 5% CO2 in air. Confluent preadipocytes were induced to differentiate with a standard differentiation medium consisting of DMEM-F10 (1:1, vol/vol) medium supplemented with 1% FBS, 1 μM dexamethasone, IBMX (0.5 mM) and antibiotics (1% Penicillin-Streptomycin). Preadipocytes were maintained in this differentiation medium for 3 days and subsequently cultured in adipocyte medium. Cultures were re-fed every 2-3 days to allow 90% of cells to reach full differentiation before conducting chemical treatment. Chemicals were freshly diluted in adipocyte medium before treatment. Cells were washed with fresh adipocyte medium, re-fed with medium containing the different treatments, and incubated at 37° C. in 5% CO2 in air before analysis. Cell viability was measured via trypan blue exclusion. Cells were plated in DMEM with different treatment in duplicate in 96-well plates. After 48 h, a CyQUANT Cell Proliferation Kit (Molecular Probes, Eugene, Oreg.) was used following the manufacturer's protocol. a microplate fluorometer (Packard Instrument Company, Inc., Downers Grove, Ill.) was used to measure CyQUANT fluorescence. Cell viability was determined by Trypan blue exclusion examination.

NADPH oxidase = NADPH oxidase expression in cultured adipocytes; format: cell-based, mouse; conditions: glucose 30 mmol/L alone or plus compound, 48 hours
Protocol: (§3) 3T3-L1 preadipocytes were incubated at a density of 8000 cells/cm^2 (10 cm^2 dish) and grown in Dulbecco's modified Eagle's medium (DMEM) containing 10% FBS and antibiotics (adipocyte medium) at 37° C. in 5% CO2 in air. Confluent preadipocytes were induced to differentiate with a standard differentiation medium consisting of DMEM-F10 (1:1, vol/vol) medium supplemented with 1% FBS, 1 μM dexamethasone, IBMX (0.5 mM) and antibiotics (1% Penicillin-Streptomycin). Preadipocytes were maintained in this differentiation medium for 3 days and subsequently cultured in adipocyte medium. Cultures were re-fed every 2-3 days to allow 90% of cells to reach full differentiation before conducting chemical treatment. Chemicals were freshly diluted in adipocyte medium before treatment. Cells were washed with fresh adipocyte medium, re-fed with medium containing the different treatments, and incubated at 37° C. in 5% CO2 in air before analysis. Cell viability was measured via trypan blue exclusion. Adipocyte 18s, cyclin A, NADPH oxidase, and UCP2 were quantitatively measured using a Smart Cycler Real Time PCR System (Cepheid, Sunnyvale, Calif.) with a TaqMan 1000 Core Reagent Kit (Applied Biosystems, Branchburg, N.J.). The primers and probe sets were ordered from Applied Biosystems TaqMan® Assays-on-Demand™ Gene Expression primers and probe set collection according to manufacture's instruction. Pooled adipocyte total RNA was serial-diluted in the range of 1.5625-25 ng and used to establish a standard curve; total RNAs for unknown samples were also diluted in this range. Reactions of quantitative RT-PCR for standards and unknown samples were also performed according to the instructions of Smart Cycler System (Cepheid, Sunnyvale, Calif.) and TaqMan Real Time PCR Core Kit (Applied Biosystems, Branchburg, N.J.). The mRNA quantitation for each sample was further normalized using the corresponding 18s quantitation.

cyclin A = assay: Cyclin A expression in cultured adipocytes; format: cell-based, mouse; conditions: compound plus glucose 30 mmol/L, 48 hours
Protocol: as §3, with “Cells were washed with fresh adipocyte medium, re-fed with medium containing the different treatments, and incubated at 37° C. in 5% CO2 in air before analysis.” left out, “The primers and probe sets were ordered from Applied Biosystems TaqMan® Assays-on-Demand™ Gene Expression primers and probe set collection according to manufacture's instruction. Pooled adipocyte total RNA was serial-diluted in the range of 1.5625-25 ng and used to establish a standard curve; total RNAs for unknown samples were also diluted in this range.” left out

C2C12 myotubes [4] = assay: IL-15 release by myotubes (ELISA); format: cell-based, murine; conditions: for effect on IL-15 release: C2C12 myotubes, 48 hours
Protocol: IL-15 release in the medium was determined using ELISA. Data are corrected for DNA content. Values are presented as mean±SEM, n=6. Means with different letter differ with p<0.05.

fatty acid synthase = assay: Fatty acid synthase gene expression in adipocytes; format: cell-based, murine
Source text: The adipose tissue-skeletal muscle endocrine axis may play a potential role in regulating metabolic energy partitioning. […] However, the effect of leucine and calcium, in regulating this process is unclear. Accordingly, present study was designed to investigate the effect of leucine, calcitriol and calcium on energy metabolism in murine adipocytes and muscle cells.

C2C12 myotubes [5] = assay: Fatty acid oxidation (palmitate oxidation) in muscle cells; format: cell-based, murine
Protocol: FIG. 53: Fatty acid oxidation was determined via palmitate oxidation. […] Data are corrected for DNA content. Values are presented as mean±SEM, n=6. Means with different letter differ with p<0.05.
The adipose tissue-skeletal muscle endocrine axis may play a potential role in regulating metabolic energy partitioning. […] While both calcium and dairy accelerate adipose tissue loss, dairy exerts a substantially greater effect and exerts a protective effect on lean tissue during hypocaloric diets. We have shown that dietary calcium modulation of adiposity is mediated, in part, by suppression of calcitriol, while the additional effect of dairy is mediated by additional bioactive components; these include the high concentration of leucine, a key factor in the regulation of muscle protein turnover. […] However, the effect of leucine and calcium, in regulating this process is unclear. Accordingly, present study was designed to investigate the effect of leucine, calcitriol and calcium on energy metabolism in murine adipocytes and muscle cells. Leucine induced a 41% increase in fatty acid oxidation in C2C12 muscle cells (p<0.001) and decreased fatty acid synthase gene expression by 66% (p<0.001) in 3T3-L1 adipocytes. Calcitriol decreased muscle cell fatty acid oxidation by 17% (p<0.05) and increased adipocyte FAS gene expression by 3-fold (p<0.05).

O=[N+]([O-])c1ccc(O)c([N+](=O)[O-])c1 [DNP]
effect on calcitriol stimulated TNFα expression (TNFα): blocked | effect on calcitriol stimulated IL-6 expression (IL-6): blocked

Nc1nc2c(ncn2[C@@H]2O[C@H](COP(=O)(O)OP(=O)(O)O)[C@@H](O)[C@H]2O)c(=O)[nH]1 [GDP]
augmentation of the H2O2 effect on mitochondrial potential (3T3-L1 adipocytes [1]): 10% | increase in ROS production compared with H2O2 treatment alone (3T3-L1 adipocytes [2]; GDP 100 μmol/L plus H2O2, 48 hours, p<0.01): 24% | effect on high glucose induced ROS production (3T3-L1 adipocytes [2]; compound plus glucose 30 mmol/L, 48 hours): further stimulated | effect on glucose induced DNA synthesis (3T3-L1 adipocytes [3]): augmented | effect on NADPH oxidase expression (NADPH oxidase): suppressed | effect on glucose stimulated cyclin A expression (cyclin A): augmented

O=C[C@H](O)[C@@H](O)[C@H](O)[C@H](O)CO [glucose]
effect on ROS production (3T3-L1 adipocytes [2]; glucose 30 mmol/L, 48 hours, p<0.05): increased ROS production significantly | effect on NADPH oxidase expression (NADPH oxidase): increased

CC(C)C[C@H](N)C(=O)O [leucine]
effect on IL-15 release (C2C12 myotubes [4]): without effect | decrease in fatty acid synthase gene expression (fatty acid synthase; 3T3-L1 adipocytes, p<0.001): 66% | effect on calcitriol increased adipocyte FAS gene expression (fatty acid synthase; compound added to calcitriol): partially reversed | increase in fatty acid oxidation (C2C12 myotubes [5]; C2C12 muscle cells, leucine 2.5 mM, 48 hours, p<0.001): 41% | effect on conditioned medium decreased fatty acid oxidation in muscle cells (C2C12 myotubes [5]; adipocytes conditioned with leucine and/or nifedipine): attenuated | effect on calcitriol decreased muscle cell fatty acid oxidation (C2C12 myotubes [5]; compound added to calcitriol): partially reversed

B1: adiponectin: adipokine added to C2C12 myotubes at 70 ng/ml (protein, UniProt Q15848 19-244, looked up)
Adiponectin: ETTTQGPGVLLPLPKGACTGWMAGIPGHPGHNGAPGRDGRDGTPGEKGEKGDPGLIGPKGDIGETGVPGAEGPRGFPGIQGRKGEPGEGAYVYRSAFSVGLETYVTIPNMPIRFTKIFYNQQNHYDGSTGKFHCNIPGLYYFAYHITVYMKDVKVSLFKKDKAMLFTYDQYQENNVDQASGSVLLHLEVGDQVWLQVYGEGERNGLYADNDNDSTFTGFLLYHDTN
effect on IL-15 release (C2C12 myotubes [4]): significantly increased | effect on calcitriol inhibition of IL-15 release (C2C12 myotubes [4]; adiponectin 70 ng/ml plus calcitriol 10 nM): partially reversed | effect on fatty acid oxidation (C2C12 myotubes [5]; C2C12 myotubes, adiponectin 70 ng/ml, 48 hours): markedly increased | effect on fatty acid oxidation suppressed by calcitriol (C2C12 myotubes [5]; in the presence of leucine): restored
